# From US7074789B2, “Kinase inhibitors” (Amgen Inc., priority 1999, dated 2006)
# pIC50: −log10 of the molar value.
# Assays:
# Format in all cases: biochemical
# Fyn = biological target: T1, Fyn (Homo sapiens, UniProt P06241); test: Kinase inhibition assay (33P transfer), Fyn; settings: read-out: Fyn-1
# T1 construct: Kinases are expressed as either kinase domains or full length constructs; made in house
# In short: (§1)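 Radiometric format: recombinant tagged kinase (catalytic domain or whole protein, sometimes combined with regulatory polypeptides) phosphorylates immobilised poly(Glu,Tyr) 4:1 or poly(Arg,Ser) 3:1 using [33P]ATP. Wells are washed in 0.5% phosphoric acid, then counted. IC50 is taken where substrate labelling falls by half.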
# PDGFRB = biological target: T2, PDGFRB (Homo sapiens, UniProt P09619); test: Kinase inhibition assay (33P transfer), PDGFRB; settings: read-out: PDGFRB-1
# T2 construct: Kinases are expressed as either kinase domains or full length constructs; made in house
# Src = biological target: T3, Src (Homo sapiens, UniProt P12931); test: Kinase inhibition assay (33P transfer), Src; settings: Table 6, Src-1 kinase inhibition class
# T3 construct: Kinases are expressed as either kinase domains or full length constructs; made in house
# In short: as §1
# Flt-1 = biological target: T4, Flt-1 (Homo sapiens, UniProt P17948); test: Kinase inhibition assay (33P transfer), Flt-1
# T4 construct: Kinases are expressed as either kinase domains or full length constructs; made in house
# In short: as §1
# EGFR = biological target: T5, EGFR (Homo sapiens, UniProt P00533); test: Kinase inhibition assay (33P transfer), EGFR; settings: Table 2, kinase inhibition class; read-out: EGFR-1
# T5 construct: Kinases are expressed as either kinase domains or full length constructs; made in house
# In short: as §1
# IGFR-1 = biological target: T6, IGFR-1 (Homo sapiens, UniProt P08069); test: Kinase inhibition assay, IGFR-1 (Table 2); settings: Table 2, kinase inhibition class
# T6 construct: Kinases are expressed as either kinase domains or full length constructs; made in house
# FGFR1 = biological target: T7, FGFR1 (Homo sapiens, UniProt P11362); test: Kinase inhibition assay (33P transfer), FGFR1; settings: read-out: FGFR1-1
# T7 construct: Kinases are expressed as either kinase domains or full length constructs; made in house
# Zap-70 = biological target: T8, Zap-70 (Homo sapiens, UniProt P43403); test: Kinase inhibition assay (33P transfer), Zap-70; settings: read-out: Zap-1
# T8 construct: Kinases are expressed as either kinase domains or full length constructs; made in house
# T8 sequence (P43403 1-619): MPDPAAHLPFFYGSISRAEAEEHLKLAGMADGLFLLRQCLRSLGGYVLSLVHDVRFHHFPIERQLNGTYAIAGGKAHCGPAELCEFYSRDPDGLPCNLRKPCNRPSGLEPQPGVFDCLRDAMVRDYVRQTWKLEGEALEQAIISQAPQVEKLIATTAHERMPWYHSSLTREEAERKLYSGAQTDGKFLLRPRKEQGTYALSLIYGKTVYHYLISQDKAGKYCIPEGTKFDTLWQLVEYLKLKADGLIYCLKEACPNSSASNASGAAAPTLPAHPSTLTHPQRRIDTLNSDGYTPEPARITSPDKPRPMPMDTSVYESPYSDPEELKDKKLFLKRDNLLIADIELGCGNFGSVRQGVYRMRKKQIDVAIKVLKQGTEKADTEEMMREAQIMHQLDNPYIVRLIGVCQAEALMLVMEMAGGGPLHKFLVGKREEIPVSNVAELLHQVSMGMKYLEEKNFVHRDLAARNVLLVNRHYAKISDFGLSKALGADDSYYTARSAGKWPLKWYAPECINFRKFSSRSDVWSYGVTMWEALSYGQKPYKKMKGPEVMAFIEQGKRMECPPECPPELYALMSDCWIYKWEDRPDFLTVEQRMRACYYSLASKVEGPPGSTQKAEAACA
# In short: (§2)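 Steps: express kinase as GST or polyHistidine fusion in E. coli or High Five cells; optionally co-express or mix with regulatory polypeptides; incubate with 33P-ATP and plate-attached poly(Glu,Tyr) 4:1 or poly(Arg,Ser) 3:1; wash with 0.5% phosphoric acid; count by liquid scintillation.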
# Hck-1 = biological target: T9, Hck-1 (Homo sapiens, UniProt P08631); test: Kinase inhibition assay (33P transfer), Hck; settings: Table 6, Hck-1 kinase inhibition class
# T9 construct: Kinases are expressed as either kinase domains or full length constructs; made in house
# ErbB4 = biological target: T10, ErbB4 (Homo sapiens, UniProt Q15303); test: Kinase inhibition assay (33P transfer), ErbB4; settings: read-out: ErbB4-1
# T10 construct: Kinases are expressed as either kinase domains or full length constructs; made in house
# Kdr = biological target: T11, Kdr (Homo sapiens, UniProt P35968); test: Kinase inhibition assay (33P transfer), Kdr; settings: read-out: KDR-1
# T11 construct: Kinases are expressed as either kinase domains or full length constructs; made in house
# In short: as §2
# Ret-1 = biological target: T12, Ret-1 (Homo sapiens, UniProt P07949); test: Kinase inhibition assay (33P transfer), Ret; settings: Table 6, Ret-1 kinase inhibition class
# T12 construct: Kinases are expressed as either kinase domains or full length constructs; made in house
# Lck = biological target: T13, Lck (Homo sapiens, UniProt P06239); test: Kinase inhibition assay (33P transfer), Lck; settings: read-out: Lck-1
# T13 construct: Kinases are expressed as either kinase domains or full length constructs; made in house
# In short: as §2
# Tek = biological target: T14, Tek (Homo sapiens, UniProt Q02763); test: Kinase inhibition assay (33P transfer), Tek; settings: read-out: Tek-1
# T14 construct: Kinases are expressed as either kinase domains or full length constructs; made in house
# In short: as §1
# Itk = biological target: T15, Itk (Homo sapiens, UniProt Q08881); test: Kinase inhibition assay (33P transfer), Itk; settings: read-out: Itk-1
# T15 construct: Kinases are expressed as either kinase domains or full length constructs; made in house
# T15 sequence (Q08881 1-620): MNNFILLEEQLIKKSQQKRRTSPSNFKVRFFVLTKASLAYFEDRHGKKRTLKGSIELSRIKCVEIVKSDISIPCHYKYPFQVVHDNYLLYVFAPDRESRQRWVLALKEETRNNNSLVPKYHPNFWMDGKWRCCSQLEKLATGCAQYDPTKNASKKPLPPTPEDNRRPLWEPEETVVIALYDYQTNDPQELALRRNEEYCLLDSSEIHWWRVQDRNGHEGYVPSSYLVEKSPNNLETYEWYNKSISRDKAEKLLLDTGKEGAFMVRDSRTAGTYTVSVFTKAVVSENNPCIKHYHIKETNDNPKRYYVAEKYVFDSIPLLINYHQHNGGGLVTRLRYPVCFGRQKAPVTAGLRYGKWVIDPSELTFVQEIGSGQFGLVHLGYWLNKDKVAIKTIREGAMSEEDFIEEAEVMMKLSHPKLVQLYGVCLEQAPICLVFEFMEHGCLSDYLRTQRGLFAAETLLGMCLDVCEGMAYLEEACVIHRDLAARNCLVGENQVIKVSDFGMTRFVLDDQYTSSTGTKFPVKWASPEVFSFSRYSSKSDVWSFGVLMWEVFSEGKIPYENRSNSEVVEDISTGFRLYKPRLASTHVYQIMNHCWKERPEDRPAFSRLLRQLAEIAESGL
# In short: as §1
# Lyn = biological target: T16, Lyn (Homo sapiens, UniProt P07948); test: Kinase inhibition assay (33P transfer), Lyn; settings: Table 6, Lyn-1 kinase inhibition class
# T16 construct: Kinases are expressed as either kinase domains or full length constructs; made in house
# In short: as §1
# c-Met = biological target: T17, c-Met (Homo sapiens, UniProt P08581); test: Kinase inhibition assay (33P transfer), c-Met; settings: Table 2, kinase inhibition class; read-out: Met-1
# T17 construct: Kinases are expressed as either kinase domains or full length constructs; made in house
# In short: as §1
# ErbB2 = biological target: T18, ErbB2 (Homo sapiens, UniProt P04626); test: Kinase inhibition assay (33P transfer), ErbB2; settings: read-out: ErbB2-2
# T18 construct: Kinases are expressed as either kinase domains or full length constructs; made in house
# In short: as §1
# AKT = biological target: T19, AKT (Homo sapiens, UniProt Q9Y243); test: Kinase inhibition assay (33P transfer), AKT; settings: Table 2, kinase inhibition class; read-out: AKT3-1
# T19 construct: Kinases are expressed as either kinase domains or full length constructs; made in house
# In short: as §2
# T5 sequence (P00533 25-1210, species assumed): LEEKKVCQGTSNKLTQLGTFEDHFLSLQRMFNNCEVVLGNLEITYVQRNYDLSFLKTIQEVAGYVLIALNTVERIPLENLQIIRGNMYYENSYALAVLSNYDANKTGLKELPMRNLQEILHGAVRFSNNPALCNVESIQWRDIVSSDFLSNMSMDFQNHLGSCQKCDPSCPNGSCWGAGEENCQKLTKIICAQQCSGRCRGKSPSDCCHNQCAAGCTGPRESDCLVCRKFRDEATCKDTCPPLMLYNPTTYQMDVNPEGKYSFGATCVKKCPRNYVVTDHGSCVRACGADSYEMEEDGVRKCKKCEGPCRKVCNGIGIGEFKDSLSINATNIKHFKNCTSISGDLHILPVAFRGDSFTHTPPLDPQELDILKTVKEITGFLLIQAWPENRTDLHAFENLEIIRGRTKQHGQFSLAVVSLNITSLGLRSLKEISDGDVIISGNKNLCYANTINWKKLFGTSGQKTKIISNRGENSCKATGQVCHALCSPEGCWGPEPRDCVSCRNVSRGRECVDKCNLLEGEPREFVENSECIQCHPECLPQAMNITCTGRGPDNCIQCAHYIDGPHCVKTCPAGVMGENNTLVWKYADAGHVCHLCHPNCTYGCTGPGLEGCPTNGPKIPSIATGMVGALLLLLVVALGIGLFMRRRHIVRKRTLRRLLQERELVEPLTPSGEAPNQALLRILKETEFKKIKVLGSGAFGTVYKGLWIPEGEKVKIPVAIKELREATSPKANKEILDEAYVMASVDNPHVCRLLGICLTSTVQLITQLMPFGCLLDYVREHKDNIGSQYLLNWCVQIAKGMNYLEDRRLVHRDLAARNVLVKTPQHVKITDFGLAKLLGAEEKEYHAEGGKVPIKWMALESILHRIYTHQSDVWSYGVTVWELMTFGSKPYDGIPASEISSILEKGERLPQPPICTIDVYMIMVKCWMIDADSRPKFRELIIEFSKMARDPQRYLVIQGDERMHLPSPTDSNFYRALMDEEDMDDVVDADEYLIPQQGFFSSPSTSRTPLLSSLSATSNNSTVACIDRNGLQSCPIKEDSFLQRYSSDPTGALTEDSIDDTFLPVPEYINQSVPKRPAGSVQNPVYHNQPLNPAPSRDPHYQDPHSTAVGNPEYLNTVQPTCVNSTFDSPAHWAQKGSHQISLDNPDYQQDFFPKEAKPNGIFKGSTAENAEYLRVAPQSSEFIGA
# T13 sequence (P06239 whole entry, species assumed, the tested form may be a part): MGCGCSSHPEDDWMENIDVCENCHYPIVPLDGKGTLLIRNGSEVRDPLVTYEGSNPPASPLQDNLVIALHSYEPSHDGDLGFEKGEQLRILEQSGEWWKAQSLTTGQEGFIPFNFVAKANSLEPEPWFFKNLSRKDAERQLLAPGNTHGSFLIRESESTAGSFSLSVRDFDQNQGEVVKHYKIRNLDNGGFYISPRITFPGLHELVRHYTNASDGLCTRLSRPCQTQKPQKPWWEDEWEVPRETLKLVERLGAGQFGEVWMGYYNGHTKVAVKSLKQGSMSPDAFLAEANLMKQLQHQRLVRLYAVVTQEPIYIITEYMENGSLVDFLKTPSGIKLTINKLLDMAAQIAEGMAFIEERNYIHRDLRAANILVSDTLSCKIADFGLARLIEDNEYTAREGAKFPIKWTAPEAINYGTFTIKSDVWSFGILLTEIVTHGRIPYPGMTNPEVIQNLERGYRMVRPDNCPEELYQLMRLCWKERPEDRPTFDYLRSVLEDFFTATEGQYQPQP
# T18 sequence (P04626 23-1255, species assumed): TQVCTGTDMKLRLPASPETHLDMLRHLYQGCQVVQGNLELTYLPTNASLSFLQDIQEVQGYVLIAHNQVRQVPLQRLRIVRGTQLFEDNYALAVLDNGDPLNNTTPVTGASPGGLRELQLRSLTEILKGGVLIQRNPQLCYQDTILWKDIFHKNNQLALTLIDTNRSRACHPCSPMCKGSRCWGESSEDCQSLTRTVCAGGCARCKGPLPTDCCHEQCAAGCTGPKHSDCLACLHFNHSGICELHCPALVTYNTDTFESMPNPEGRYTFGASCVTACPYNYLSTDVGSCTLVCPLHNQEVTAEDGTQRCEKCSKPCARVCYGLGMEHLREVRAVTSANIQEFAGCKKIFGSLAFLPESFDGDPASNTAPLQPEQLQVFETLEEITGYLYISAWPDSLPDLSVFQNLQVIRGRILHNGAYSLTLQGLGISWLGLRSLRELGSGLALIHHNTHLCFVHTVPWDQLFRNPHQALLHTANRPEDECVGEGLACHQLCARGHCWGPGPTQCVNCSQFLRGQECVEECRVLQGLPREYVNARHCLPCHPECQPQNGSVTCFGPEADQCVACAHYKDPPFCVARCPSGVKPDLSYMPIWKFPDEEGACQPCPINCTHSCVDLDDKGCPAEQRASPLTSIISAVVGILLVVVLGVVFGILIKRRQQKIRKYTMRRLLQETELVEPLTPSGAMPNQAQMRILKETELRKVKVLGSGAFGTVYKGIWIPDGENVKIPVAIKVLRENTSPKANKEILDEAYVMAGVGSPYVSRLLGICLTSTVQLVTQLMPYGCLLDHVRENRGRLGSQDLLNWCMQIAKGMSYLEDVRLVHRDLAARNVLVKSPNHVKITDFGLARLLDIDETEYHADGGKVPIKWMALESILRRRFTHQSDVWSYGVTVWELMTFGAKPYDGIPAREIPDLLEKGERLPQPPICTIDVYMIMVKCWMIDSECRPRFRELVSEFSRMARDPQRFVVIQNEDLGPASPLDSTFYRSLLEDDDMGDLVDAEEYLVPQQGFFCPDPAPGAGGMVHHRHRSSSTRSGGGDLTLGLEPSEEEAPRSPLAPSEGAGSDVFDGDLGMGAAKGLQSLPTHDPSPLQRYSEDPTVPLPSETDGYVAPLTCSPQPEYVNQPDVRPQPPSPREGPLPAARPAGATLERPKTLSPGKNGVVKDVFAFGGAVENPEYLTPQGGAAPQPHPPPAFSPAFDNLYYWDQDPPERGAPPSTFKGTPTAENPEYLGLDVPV
# T3 sequence (P12931 whole entry, species assumed, the tested form may be a part): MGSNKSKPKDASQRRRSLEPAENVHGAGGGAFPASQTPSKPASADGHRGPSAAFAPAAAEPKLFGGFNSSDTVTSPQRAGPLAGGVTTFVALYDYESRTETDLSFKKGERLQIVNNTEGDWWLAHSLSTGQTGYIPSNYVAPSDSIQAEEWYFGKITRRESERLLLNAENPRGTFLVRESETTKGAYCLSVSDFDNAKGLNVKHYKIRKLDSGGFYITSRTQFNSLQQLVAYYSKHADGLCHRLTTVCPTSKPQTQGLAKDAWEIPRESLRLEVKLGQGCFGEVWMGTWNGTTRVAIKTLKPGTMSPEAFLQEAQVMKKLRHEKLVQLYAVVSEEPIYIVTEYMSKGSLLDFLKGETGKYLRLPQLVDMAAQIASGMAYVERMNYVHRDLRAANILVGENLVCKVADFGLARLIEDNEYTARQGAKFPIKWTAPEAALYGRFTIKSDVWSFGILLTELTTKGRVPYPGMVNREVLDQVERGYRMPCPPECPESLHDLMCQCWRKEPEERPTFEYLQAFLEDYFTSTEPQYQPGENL
# T17 sequence (P08581 25-1390): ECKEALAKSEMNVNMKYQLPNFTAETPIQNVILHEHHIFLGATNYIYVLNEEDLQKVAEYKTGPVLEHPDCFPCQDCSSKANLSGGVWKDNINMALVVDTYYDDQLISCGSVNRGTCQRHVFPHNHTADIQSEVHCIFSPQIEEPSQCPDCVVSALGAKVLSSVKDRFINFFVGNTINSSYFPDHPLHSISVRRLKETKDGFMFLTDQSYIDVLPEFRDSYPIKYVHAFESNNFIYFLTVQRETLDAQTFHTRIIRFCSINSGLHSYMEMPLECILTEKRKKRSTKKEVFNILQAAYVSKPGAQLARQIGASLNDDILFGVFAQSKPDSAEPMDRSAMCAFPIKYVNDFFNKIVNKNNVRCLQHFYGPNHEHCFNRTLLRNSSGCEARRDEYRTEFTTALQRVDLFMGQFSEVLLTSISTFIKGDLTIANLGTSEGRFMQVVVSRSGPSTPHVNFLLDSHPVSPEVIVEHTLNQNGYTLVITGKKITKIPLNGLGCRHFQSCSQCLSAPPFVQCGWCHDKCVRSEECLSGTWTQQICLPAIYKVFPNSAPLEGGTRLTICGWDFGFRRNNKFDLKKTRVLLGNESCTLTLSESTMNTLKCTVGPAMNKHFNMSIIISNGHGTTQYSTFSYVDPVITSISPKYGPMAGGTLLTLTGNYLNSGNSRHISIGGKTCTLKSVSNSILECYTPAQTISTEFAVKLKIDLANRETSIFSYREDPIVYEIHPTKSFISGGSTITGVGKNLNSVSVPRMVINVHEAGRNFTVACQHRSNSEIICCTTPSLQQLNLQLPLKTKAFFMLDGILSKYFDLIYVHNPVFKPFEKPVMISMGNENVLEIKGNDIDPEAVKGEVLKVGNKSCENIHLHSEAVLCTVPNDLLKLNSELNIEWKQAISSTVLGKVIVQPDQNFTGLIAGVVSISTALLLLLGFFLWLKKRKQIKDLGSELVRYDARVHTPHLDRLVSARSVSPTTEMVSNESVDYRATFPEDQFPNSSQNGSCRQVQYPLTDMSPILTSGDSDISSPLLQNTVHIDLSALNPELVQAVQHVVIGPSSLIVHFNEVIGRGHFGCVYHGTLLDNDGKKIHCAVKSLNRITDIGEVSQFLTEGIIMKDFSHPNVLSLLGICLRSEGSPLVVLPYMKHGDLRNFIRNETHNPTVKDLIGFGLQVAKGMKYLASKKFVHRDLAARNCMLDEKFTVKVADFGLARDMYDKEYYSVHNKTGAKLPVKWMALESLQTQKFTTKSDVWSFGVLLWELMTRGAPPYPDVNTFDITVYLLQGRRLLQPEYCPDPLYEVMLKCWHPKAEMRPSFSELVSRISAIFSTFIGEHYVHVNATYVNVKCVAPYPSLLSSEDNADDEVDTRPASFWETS
pIC50 (Fyn),pIC50 (PDGFRB),pIC50 (Src),pIC50 (Flt-1),pIC50 (EGFR),pIC50 (IGFR-1),pIC50 (FGFR1),pIC50 (Zap-70),pIC50 (Hck-1),pIC50 (ErbB4),pIC50 (Kdr),pIC50 (Ret-1),pIC50 (Lck),pIC50 (Tek),pIC50 (Itk),pIC50 (Lyn),pIC50 (c-Met),pIC50 (ErbB2),pIC50 (AKT),Structure (SMILES)
< 5.04,> 6.09,< 5.04,5.32 to 6.09,< 5.04,< 5.04,> 6.09,< 5.04,< 5.04,< 5.04,> 6.09,> 6.09,> 6.09,5.04 to 5.15,< 5.04,< 5.04,< 5.04,< 5.04,< 5.04,COc1cc(Nc2ncnc(-n3c(NCc4cccc(C)c4)nc4ccccc43)n2)cc(OC)c1OC [Compound 515]
< 5.01,5.12 to 5.28,< 5.01,< 5.01,< 5.01,< 5.01,5.01 to 5.12,< 5.01,< 5.01,< 5.01,5.28 to 6.06,5.28 to 6.06,5.12 to 5.28,< 5.01,< 5.01,< 5.01,< 5.01,< 5.01,< 5.01,COc1cc(Nc2ncnc(-c3cccnc3NCc3ccccc3F)n2)cc(OC)c1OC [Compound 1087]
5.09 to 5.25,5.25 to 6.03,< 4.98,> 6.03,5.09 to 5.25,5.25 to 6.03,5.25 to 6.03,< 4.98,< 4.98,< 4.98,> 6.03,5.09 to 5.25,5.25 to 6.03,5.09 to 5.25,4.98 to 5.09,4.98 to 5.09,4.98 to 5.09,5.09 to 5.25,< 4.98,COc1cc(Nc2ncnc(-c3c(O)[nH]c4ccc(Cl)cc34)n2)cc(OC)c1OC [Compound 517]
< 5.02,< 5.02,< 5.02,5.13 to 5.30,< 5.02,< 5.02,< 5.02,< 5.02,< 5.02,< 5.02,> 6.07,5.02 to 5.13,5.13 to 5.30,5.02 to 5.13,< 5.02,< 5.02,< 5.02,5.02 to 5.13,< 5.02,COc1ccc(Nc2ncccc2-c2ncnc(Nc3cc(OC)c(OC)c(OC)c3)n2)c(C)c1 [Compound 1086]
4.87 to 4.98,5.14 to 5.92,4.98 to 5.14,5.14 to 5.92,4.98 to 5.14,> 5.92,5.14 to 5.92,< 4.87,4.98 to 5.14,4.98 to 5.14,> 5.92,5.14 to 5.92,5.14 to 5.92,5.14 to 5.92,4.98 to 5.14,4.98 to 5.14,5.14 to 5.92,4.98 to 5.14,< 4.87,COc1ccc(Nc2ncnc(-n3c(N)nc4ccccc43)n2)cc1 [Compound 656]
